Values of other authors as cited in patent US6703044B1, “Venlafaxine formulations” (priority 2002, dated 2004).
Counter-ions that a name gives are not always drawn.

Conditions: plural daily dosing regimen

patients experiencing nausea: about forty five | patients in whom vomiting occurs: about seventeen
Compound: COc1ccc(C(CN(C)C)C2(O)CCCCC2)cc1 (centres unmarked) [venlafaxine hydrochloride, 1-[(2-dimethylamino)-1-(4-methoxyphenyl)ethyl] cyclohexanol]
